Measured values as given in PubChem BioAssay (NCI).
“And” between values parts separate entries of the source, which are not always exact repeats. Equal entries are not always repeated.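 Each compound was tested at five concentrations against cells in 96-well plates for 48 hours. GI50 = concentration required for 50% inhibition of growth. Definition used: TGI = concentration required for complete inhibition of growth.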

Assays:
Assay in all cases: inhibition of tumour cell growth, NCI panel, 48 h
[1] = test system: A549 NSCLC
[2] = test system: NCI-H522 lung
[3] = test system: CCRF-CEM leukemia
[4] = test system: NCI/ADR-RES ovarian
[5] = test system: T-47D breast
[6] = test system: SK-MEL-2 melanoma
[7] = test system: RXF 393 renal
[8] = test system: U251 CNS
[9] = test system: OVCAR-5 ovarian
[10] = test system: OVCAR-4 ovarian

Row | Compound | GI50 [1] | TGI [1] | GI50 [2] | TGI [2] | GI50 [3] | TGI [3] | GI50 [4] | TGI [4] | GI50 [5] | TGI [5] | GI50 [6] | TGI [6] | GI50 [7] | TGI [7] | GI50 [8] | TGI [8] | GI50 [9] | TGI [9] | GI50 [10] | TGI [10]
1 | C=C1C(=O)O[C@H]2[C@H]1CC/C(COC(=O)NCc1cc(OC)cc(OC)c1)=C\CC[C@@]1(C)O[C@@H]21 | 2.58 µM | 7.47 µM | 0.349 µM | 1.49 µM | 0.476 µM | 4.36 µM | 2.98 µM | 10.2 µM | 1.85 µM | 4.83 µM | 1.66 µM | 3.54 µM | 0.687 µM | 2.07 µM | 3.16 µM | 11.1 µM | 1.82 µM | 4.45 µM | 1.7 µM | 5.24 µM
2 | CCOC(=O)N1C=CC(=C2C(=C3C=CN(C(=O)OCC)C=C3)C(=C3C=CN(C(=O)OCC)C=C3)C2=C2C=CN(C(=O)OCC)C=C2)C=C1 | – | > 100 µM | – | 65.4 µM | – | – | – | > 100 µM | – | > 100 µM | – | > 100 µM | – | > 100 µM | – | 91.7 µM | – | > 100 µM | – | > 100 µM
3 | Cc1cc(N(CCOS(C)(=O)=O)CCOS(C)(=O)=O)ccc1C=Nc1ccc(-c2csc(-c3ccc(Br)cc3)n2)cc1 | – | 53.1 µM | – | 1.68 µM | – | > 100 µM | – | 90.7 µM | – | 80.1 µM | – | 61.7 µM | – | 6.55 µM | – | 60.5 µM | – | 54.9 µM | – | 84.9 µM
4 | O=C(O)CCSC(=S)Nc1ccc([N+](=O)[O-])cc1 | – | > 100 µM | – | > 68 µM | – | > 68.2 µM | – | > 100 µM | – | > 100 µM | – | > 100 µM | – | > 100 µM | – | > 100 µM | – | > 100 µM | – | > 100 µM
5 | O=S(=O)(CCCCl)SCCCCl | – | > 100 µM | – | 32.6 µM | – | 47.1 µM | – | > 85.3 µM | – | 98.2 µM | – | > 100 µM | – | 57.8 µM | – | > 69.3 µM | – | > 94.3 µM | – | 24.2 µM
6 | CCCCCCNCCCNc1c2ccccc2nc2cccc([N+](=O)[O-])c12 | – | 0.113 µM and 0.131 µM | – | 0.0421 µM | 0.0277 µM | 0.17 µM and 0.182 µM | 0.54 µM | 1.66 µM and 2.8 µM | 0.0503 µM | 0.288 µM and 0.457 µM | – | 0.0331 µM and 0.0231 µM | – | 0.0312 µM | – | 0.0966 µM and 0.116 µM | 0.0207 µM | 0.194 µM and 0.151 µM | 0.0115 µM | 0.0419 µM and 0.0486 µM
7 | C=C(CN(C)C)C(=O)c1ccc(Oc2ccccc2)cc1 | – | 42.6 µM | – | 2.72 µM | – | 14.6 µM | – | > 100 µM | – | 13.7 µM | – | 19.6 µM | – | 7.17 µM | – | 23.7 µM | – | 18.6 µM | – | 20.9 µM
8 | Cc1nn(C)c2cc(N(C)c3ccnc(Nc4cccc(S(N)(=O)=O)c4)n3)ccc12 | 8.55 µM | > 25 µM | 3.46 µM | 19.2 µM | 7.3 µM | > 25 µM | 7.85 µM | > 25 µM | > 7.8 µM | > 21.1 µM | 9.32 µM | > 25 µM | 5.98 µM | > 19.2 µM | 10.8 µM | > 25 µM | 5.83 µM | > 25 µM | 6.15 µM | > 25 µM
9 | O=C(O)c1ccccc1Nc1ccc2nnc(-c3ccncc3)n2n1 | 13.3 µM | 62 µM | 10.4 µM | 22.8 µM | 4.28 µM | > 100 µM | 18.8 µM | 77.4 µM | 4.3 µM | 22.3 µM | 3.15 µM | 9.08 µM | 3.18 µM | 9.98 µM | 13.3 µM | 28 µM | 17.4 µM | 79.3 µM | – | –
10 | COc1cc(N2CCC(N3CCN(C)CC3)CC2)ccc1Nc1ncc(Cl)c(Nc2ccccc2S(=O)(=O)C(C)C)n1 | 0.402 µM | 2.03 µM | 0.525 µM | 2.03 µM | 0.424 µM | 5.86 µM | 1.29 µM | 5.75 µM | 1.59 µM | 3.55 µM | 1.33 µM | 3.45 µM | 0.6 µM | 1.86 µM | 1 µM | 2.4 µM | 0.659 µM | 5.48 µM | 0.341 µM | 2.17 µM
11 | CC#CC(=O)N1CC[C@@H](n2c(=O)n(-c3ccc(Oc4ccccc4)cc3)c3c(N)ncnc32)C1 | 55 µM | > 100 µM | 10.8 µM | 92.7 µM | 26.2 µM | > 100 µM | 24.2 µM | > 100 µM | 12.2 µM | 62.9 µM | 38.8 µM | > 100 µM | 37.3 µM | > 100 µM | 35.8 µM | > 100 µM | 46.6 µM | > 100 µM | 20.4 µM | > 100 µM
12 | Cc1ccc(C2=NN(c3ccc(S(N)(=O)=O)cc3)C(c3cn(-c4ccccc4)nc3-c3ccccc3)C2)cc1 (stereo not drawn) | 6.75 µM | > 100 µM | 25.1 µM | > 100 µM | > 100 µM | > 100 µM | 11.1 µM | > 100 µM | 9.13 µM | > 100 µM | 43.7 µM | > 100 µM | 3.81 µM | 17.8 µM | 19.6 µM | > 100 µM | 70.4 µM | > 100 µM | – | –
13 | COc1ccc(C(c2cc3c(cc2O)OCO3)N2CCOCC2)cc1OC (stereo not drawn) | – | 51.9 µM | – | 15.1 µM | – | – | – | 20 µM | – | 45.8 µM | – | 32.5 µM | – | 58.2 µM | – | 21.4 µM | – | 21.5 µM | – | 29 µM
14 | COc1cc(/C=C2\C[C@H]3[C@@H]4CC=C5C[C@@H](OC(C)=O)CC[C@]5(C)[C@H]4CC[C@]3(C)[C@H]2OC(C)=O)ccc1OCCN1CCCCC1 | 19.3 µM | > 50 µM | > 50 µM | > 50 µM | – | – | > 50 µM | > 50 µM | > 50 µM | > 50 µM | 20.1 µM | > 50 µM | 6.94 µM | 18.8 µM | 8.76 µM | 16.5 µM | 23.4 µM | > 50 µM | – | –
15 | Oc1c(CN2CCN(c3ccccc3F)CC2)cc(Br)c2cccnc12 | 0.546 µM | 13 µM | 0.662 µM | 5.05 µM | 0.355 µM | 6.35 µM | 0.224 µM | 21.9 µM | 0.565 µM | 60.5 µM | 7.65 µM | > 51.6 µM | 2.05 µM | 19.1 µM | 0.529 µM | 11.1 µM | 5.36 µM | 49 µM | – | –
